Measured values as given in PubChem BioAssay (NCI).
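Compound exposure: 48 hours, 5 concentrations, 96-well plates. GI50 is the concentration that inhibits growth by half. At the TGI there is no net growth.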

How the values were obtained:
Experiment in all cases: DTP human tumour cell line panel, 48 h
MCF7 breast = tested on: MCF7 breast
OVCAR-8 ovarian = tested on: OVCAR-8 ovarian
COLO 205 colon = tested on: COLO 205 colon
DU-145 prostate = tested on: DU-145 prostate
ACHN renal = tested on: ACHN renal
SK-MEL-2 melanoma = tested on: SK-MEL-2 melanoma
SK-OV-3 ovarian = tested on: SK-OV-3 ovarian
CCRF-CEM leukemia = tested on: CCRF-CEM leukemia
HS 578T breast = tested on: HS 578T breast
SF-295 CNS = tested on: SF-295 CNS
NCI-H23 lung = tested on: NCI-H23 lung
SR leukemia = tested on: SR leukemia
U251 CNS = tested on: U251 CNS
SF-268 CNS = tested on: SF-268 CNS
NCI-H226 lung = tested on: NCI-H226 lung
A549 NSCLC = tested on: A549 NSCLC
NCI-H522 lung = tested on: NCI-H522 lung
UACC-257 melanoma = tested on: UACC-257 melanoma
HCT-15 colon = tested on: HCT-15 colon
M14 melanoma = tested on: M14 melanoma
TK-10 renal = tested on: TK-10 renal
HL-60(TB) leukemia = tested on: HL-60(TB) leukemia
NCI-H460 lung = tested on: NCI-H460 lung
SW-620 colon = tested on: SW-620 colon
CAKI-1 renal = tested on: CAKI-1 renal
SK-MEL-28 melanoma = tested on: SK-MEL-28 melanoma
EKVX NSCLC = tested on: EKVX NSCLC
MOLT-4 leukemia = tested on: MOLT-4 leukemia
SN12C renal = tested on: SN12C renal
SF-539 CNS = tested on: SF-539 CNS
MDA-MB-435 = tested on: MDA-MB-435
HT29 colon = tested on: HT29 colon
OVCAR-5 ovarian = tested on: OVCAR-5 ovarian
HOP-92 NSCLC = tested on: HOP-92 NSCLC
BT-549 breast = tested on: BT-549 breast
UACC-62 melanoma = tested on: UACC-62 melanoma
KM12 colon = tested on: KM12 colon
UO-31 renal = tested on: UO-31 renal
OVCAR-4 ovarian = tested on: OVCAR-4 ovarian
K-562 leukemia = tested on: K-562 leukemia
T-47D breast = tested on: T-47D breast
MDA-MB-231 breast = tested on: MDA-MB-231 breast
NCI/ADR-RES ovarian = tested on: NCI/ADR-RES ovarian
OVCAR-3 ovarian = tested on: OVCAR-3 ovarian
HOP-62 NSCLC = tested on: HOP-62 NSCLC
MALME-3M melanoma = tested on: MALME-3M melanoma
PC-3 prostate = tested on: PC-3 prostate
HCT-116 colon = tested on: HCT-116 colon
SNB-75 CNS = tested on: SNB-75 CNS
RPMI-8226 leukemia = tested on: RPMI-8226 leukemia
HCC-2998 colon = tested on: HCC-2998 colon
LOX IMVI melanoma = tested on: LOX IMVI melanoma
SNB-19 CNS = tested on: SNB-19 CNS
786-0 renal = tested on: 786-0 renal
RXF 393 renal = tested on: RXF 393 renal
IGROV1 ovarian = tested on: IGROV1 ovarian
A498 renal = tested on: A498 renal
SK-MEL-5 melanoma = tested on: SK-MEL-5 melanoma

CC1(C)Cc2c(Br)c(Br)c(Br)c(OCC(O)CN3CCOCC3)c2O1 (stereo unspecified)
GI50 (MCF7 breast): 13.4 µM
TGI (MCF7 breast): 29 µM
GI50 (OVCAR-8 ovarian): 11.3 µM
TGI (OVCAR-8 ovarian): 35.4 µM
GI50 (COLO 205 colon): 13.4 µM
TGI (COLO 205 colon): 27 µM
GI50 (DU-145 prostate): 13.4 µM
TGI (DU-145 prostate): 26.2 µM
GI50 (ACHN renal): 15.1 µM
TGI (ACHN renal): 28.7 µM
GI50 (SK-MEL-2 melanoma): 7.64 µM
TGI (SK-MEL-2 melanoma): 23.8 µM
GI50 (SK-OV-3 ovarian): 15.9 µM
TGI (SK-OV-3 ovarian): 29.6 µM
GI50 (CCRF-CEM leukemia): 10.2 µM
TGI (CCRF-CEM leukemia): 24.1 µM
GI50 (HS 578T breast): 17.2 µM
TGI (HS 578T breast): 47.4 µM
GI50 (SF-295 CNS): 5.17 µM
TGI (SF-295 CNS): 20.3 µM
GI50 (NCI-H23 lung): 13.5 µM
TGI (NCI-H23 lung): 27.6 µM
GI50 (SR leukemia): 5.14 µM
TGI (SR leukemia): 18.4 µM
GI50 (U251 CNS): 13.7 µM
TGI (U251 CNS): 27.9 µM
GI50 (SF-268 CNS): 12.1 µM
TGI (SF-268 CNS): 27.8 µM
GI50 (NCI-H226 lung): 15.2 µM
TGI (NCI-H226 lung): 34.9 µM
GI50 (A549 NSCLC): 12.9 µM
TGI (A549 NSCLC): 28.4 µM
GI50 (NCI-H522 lung): 12.4 µM
TGI (NCI-H522 lung): 26.7 µM
GI50 (UACC-257 melanoma): 19.1 µM
TGI (UACC-257 melanoma): 37.8 µM
GI50 (HCT-15 colon): 13.7 µM
TGI (HCT-15 colon): 26.8 µM
GI50 (M14 melanoma): 17.9 µM
TGI (M14 melanoma): 37.1 µM
GI50 (TK-10 renal): 14.5 µM
TGI (TK-10 renal): 30 µM
GI50 (HL-60(TB) leukemia): 3.72 µM
TGI (HL-60(TB) leukemia): 17.9 µM
GI50 (NCI-H460 lung): 9.29 µM
TGI (NCI-H460 lung): 25.8 µM
GI50 (SW-620 colon): 15.6 µM
TGI (SW-620 colon): 29.8 µM
GI50 (CAKI-1 renal): 12.3 µM
TGI (CAKI-1 renal): 27.4 µM
GI50 (SK-MEL-28 melanoma): 15 µM
TGI (SK-MEL-28 melanoma): 31.9 µM
GI50 (EKVX NSCLC): 7.72 µM
TGI (EKVX NSCLC): 20.5 µM
GI50 (MOLT-4 leukemia): 3.15 µM
TGI (MOLT-4 leukemia): 14.1 µM
GI50 (SN12C renal): 17.4 µM
TGI (SN12C renal): 33.5 µM
GI50 (SF-539 CNS): 12.5 µM
TGI (SF-539 CNS): 26 µM
GI50 (MDA-MB-435): 15.5 µM
TGI (MDA-MB-435): 31.9 µM
GI50 (HT29 colon): 3.73 µM
TGI (HT29 colon): 19 µM
GI50 (OVCAR-5 ovarian): 14.8 µM
TGI (OVCAR-5 ovarian): 28.8 µM
GI50 (HOP-92 NSCLC): 3.76 µM
TGI (HOP-92 NSCLC): 21.5 µM
GI50 (BT-549 breast): 10.5 µM
TGI (BT-549 breast): 22.3 µM
GI50 (UACC-62 melanoma): 13.8 µM
TGI (UACC-62 melanoma): 27.5 µM
GI50 (KM12 colon): 13.4 µM
TGI (KM12 colon): 28.9 µM
GI50 (UO-31 renal): 12.8 µM
TGI (UO-31 renal): 27.4 µM
GI50 (OVCAR-4 ovarian): 19.3 µM
TGI (OVCAR-4 ovarian): > 100 µM
GI50 (K-562 leukemia): 3.1 µM
TGI (K-562 leukemia): 14.3 µM
GI50 (T-47D breast): 13.1 µM
TGI (T-47D breast): 27.3 µM
GI50 (MDA-MB-231 breast): 10.1 µM
TGI (MDA-MB-231 breast): 22.5 µM
GI50 (NCI/ADR-RES ovarian): 16.1 µM
TGI (NCI/ADR-RES ovarian): 34.7 µM
GI50 (OVCAR-3 ovarian): 12.3 µM
TGI (OVCAR-3 ovarian): 28.5 µM
GI50 (HOP-62 NSCLC): 12.2 µM
TGI (HOP-62 NSCLC): 27.3 µM
GI50 (MALME-3M melanoma): 15 µM
TGI (MALME-3M melanoma): 32.7 µM
GI50 (PC-3 prostate): 7.93 µM
TGI (PC-3 prostate): 20.7 µM
GI50 (HCT-116 colon): 15.4 µM
TGI (HCT-116 colon): 45.2 µM
GI50 (SNB-75 CNS): 12.6 µM
TGI (SNB-75 CNS): 38.1 µM
GI50 (RPMI-8226 leukemia): 3.82 µM
TGI (RPMI-8226 leukemia): 18.7 µM
GI50 (HCC-2998 colon): 14.1 µM
TGI (HCC-2998 colon): 28.8 µM
GI50 (LOX IMVI melanoma): 13.6 µM
TGI (LOX IMVI melanoma): 27.9 µM
GI50 (SNB-19 CNS): 13.4 µM
TGI (SNB-19 CNS): 26.4 µM
GI50 (786-0 renal): 13 µM
TGI (786-0 renal): 28.6 µM
GI50 (RXF 393 renal): 3.69 µM
TGI (RXF 393 renal): 13 µM
GI50 (IGROV1 ovarian): 14.1 µM
TGI (IGROV1 ovarian): 28.4 µM
GI50 (A498 renal): 12.6 µM
TGI (A498 renal): 26.4 µM
GI50 (SK-MEL-5 melanoma): 10.2 µM
TGI (SK-MEL-5 melanoma): 22 µM
